We go through 2 substances from patent US20100249184A1, “INDUCTION AND/OR MAINTENANCE OF TUMOR DORMANCY BY DISRUPTION OF UROKINASE PLASMINOGEN ACTIVATOR RECEPTOR-INTEGRIN INTERACTION” (MOUNT SINAI SCHOOL OF MEDICINE, priority 2007, published 2010).

Assay [1] relates to T-HEp3 cells. The assay can be described thus: Adhesion assay to fibronectin, T-HEp3 cells. The assay is classed as cell-based, human. As to conditions: peptide 20 or 200 μM, 15 min.
Assay [2] concerns HEK293 cells. Briefly: Adhesion assay to fibronectin, transfected HEK293 cells. As to conditions: HEK293-uPAR^wt cells; peptide 20 or 200 μM, 15 min. The assay is classed as cell-based. The method, then: HEK293 cells transiently transfected with pcDNA3.1, or expression constructs for uPAR^wt or uPAR^S245A were detached 40 hrs after transfection and 1.5×10^5 cells were seeded on fibronectin (4 μg/ml in a 48-well plate) for 15 and 30 min at 37° C. Cell adhesion was quantified as described in the Examples. The results shown are mean (SD) of 2 individual experiments, 4 determinations for each cell type. Two additional experiments were performed with similar results. […] The cells were divided into 2 aliquots and one aliquot was incubated for 10 min with anti-uPAR(R^2) antibody (10 μg/ml). Cells (1.2×10^5) were seeded onto wells of a 48-well plate and the adhesion to fibronectin tested as in FIG. 4A. The results are mean (SD) of 6 determinations. […] Cells were seeded onto 96-well plates and adhesion to fibronectin tested as in FIG. 4A. The results are mean (SD) of 3 determinations for each peptide. The experiment was repeated twice.
HEK293 cells were transiently transfected with pcDNA3.1, uPAR^wt, or uPAR^S245A. […] Following 15 and 30 min incubation at 37° C., the cells were washed twice with PBS with CaCl2 and MgCl2, fixed with 1% glutaraldehyde, stained with 1% crystal violet for 10 min, washed, dried, destained with 10% methanol and 5% acetic acid, and the OD of the extracted dye was measured in triplicate using the ELISA microplate-reader ELX800 from Bio-Tek Instruments. […]

For assay [3], the system named is T-ELK:GFP cells. The assay can be described thus: ERK activation reporter (GFP, FACS) in T-ELK:GFP cells. The conditions noted are these: 38 hrs, untreated 7.4%. In kind it is cell-based, human. The source says:
FIGS. 6A-E show ERK activation and growth in vivo. In FIG. 6A, HEK293 and D-Hep3 cells transfected with uPAR^wt produces stronger activation of ERK than cells transfected with uPAR^S245A or with vector (top and middle panels); HEK293, and D-HEp3 cells, transiently transfected with pcDNA3.1 vector, or with an expression construct for uPAR^wt or uPAR^S245A lysed 48 hrs later and analyzed by Western blotting for phospho-ERK (FIG. 6A, top panels) and ERK 1/2 (FIG. 6A, middle panels) with specific antibodies. The bands were scanned with NIH Image and plotted. The ratio of phospho-ERK to ERK was calculated and expressed as a fraction of the ratio of pcDNA3.1 transfected cells. In FIG. 6A (bottom panels), uPAR^wt and uPAR^S245A expression was determined by Western blotting. […] D-HEp3 cells transfected with vector, or uPAR^wt or uPAR^S245A were detached with EDTA 36 hrs after transfection and 7×10^5 cells in 30 μl PBS were inoculated onto chorioallantoic membranes (“CAMs”) of 10-day old chick embryos. Each sample was inoculated onto 4 CAMs. The CAMs were excised 4 days later and the number of tumor cells was determined as in the Examples. The bars show mean and standard deviation. Paired t-test vector/uPAR^S245A p=0.76, vector/uPAR^wt p=0.0005, uPAR^S245/uPAR^wt p=0.0002. Inset: uPAR expression detected by Western blot with R2 antibody. In FIG. 6C, peptide 240-248, but not peptide 17-24, down regulates P-ERK level. […] The cells were lysed and the lysates were analyzed for P-ERK (FIG. 6C, upper panel) and total ERK (FIG. 6C, lower panel) by Western blotting. […] The cells were processed as in FIG. 6C, except that the bands were scanned by NIH Image the P-ERK/ERK ratio was calculated. […] The cells were detached and analyzed for GFP in FACS Canto using FACSDiva software. […]
[…] The cells were detached and analyzed for GFP by FACS analysis using FACS Canto (Becton Dickinson, Calif.) and FACSDiva software. […] Concentration dependence of P-ERK inhibition was analyzed by scanning P-ERK and ERK bands with NIH-Image and expressing their ratios as % of the ratio in untreated control (T-HEp3) cells. […]

For “peptide 17-24: synthetic uPAR-derived peptide, domain I amino acid 17-24: CALGQDLC (SEQ ID NO:5); negative control [reference compound]”, the adhesion to fibronectin result in assay [1] and in assay [2] was “no effect” in each case. The “GFP-positive cells (% of total)” value in assay [3] (25 μM peptide) is 6.2%.

With “peptide 240-248: synthetic uPAR-derived peptide, domain III residues 240-248: GCATASMCQ (SEQ ID NO:9)”, the adhesion to fibronectin entry in assay [1] and in assay [2] was “reduced adhesion to fibronectin” each time. The “GFP-positive cells (% of total)” value amounted to 1.6% in assay [3] (5 μM peptide) and 0.7% in assay [3] (25 μM peptide).
